In ChEMBL document CHEMBL3885881, “DrugMatrix”:

Organism: Rattus norvegicus
Assay: DrugMatrix - Regimen: Daily Repeat
Type: toxicity, organism-based, Sprague-Dawley
Design: regimen Daily Repeat, gender Male, age 6-8 weeks
Settings: in vivo, po, route oral GAVAGE, vehicle .5 % CMC; for ABSOLUTE BASOPHIL / ABSOLUTE EOSINOPHIL / ABSOLUTE LYMPHOCYTE / ABSOLUTE MONOCYTE / ABSOLUTE SEGMENTED NEUTROPHIL / BASOPHIL / EOSINOPHIL / ERYTHROCYTE COUNT / HEMATOCRIT / HEMOGLOBIN / LEUKOCYTE COUNT / LYMPHOCYTE / MEAN CORPUSCULAR HEMOGLOBIN / MEAN CORPUSCULAR HEMOGLOBIN CONCENTRATION / MEAN CORPUSCULAR VOLUME / MONOCYTE / NEUTROPHIL / NUCLEATED RED BLOOD CELLS / PLATELET COUNT: tissue Blood; for ALANINE AMINOTRANSFERASE / ALBUMIN / ALKALINE PHOSPHATASE / ASPARTATE AMINOTRANSFERASE / BLOOD UREA NITROGEN / CARBON DIOXIDE / CHLORIDE / CHOLESTEROL / CREATINE PHOSPHOKINASE / CREATININE / GLUCOSE / LACTATE DEHYDROGENASE / LIPASE / PHOSPHORUS / POTASSIUM / SODIUM / TOTAL BILIRUBIN / TOTAL PROTEIN / URIC ACID: tissue Plasma
[1] = 75 mg/kg, 72 h, dose level Low, time 3 day
[2] = 75 mg/kg, 120 h, dose level Low, time 5 day
[3] = 750 mg/kg, 72 h, dose level High, time 3 day
[4] = 750 mg/kg, 120 h, dose level High, time 5 day

With CC(=O)OC[C@H]1O[C@@H](n2ncc(=O)[nH]c2=O)[C@H](OC(C)=O)[C@@H]1OC(C)=O [AZARIBINE] the “ABSOLUTE BASOPHIL” value [1] was 0 CELLS/uL, the “ABSOLUTE EOSINOPHIL” value [1] was 0 CELLS/uL and the “ABSOLUTE LYMPHOCYTE” value [1] was 12537.67 CELLS/uL. The “ABSOLUTE MONOCYTE” value [1] was 196 CELLS/uL, the “ABSOLUTE SEGMENTED NEUTROPHIL” value [1] was 1699.67 CELLS/uL and the BASOPHIL [1] was 0%. For the same molecule, the EOSINOPHIL [1] was 0%, the “ERYTHROCYTE COUNT” value [1] was 5.31 x10E6/uL and the HEMATOCRIT [1] was 32.6%. For the same molecule, the HEMOGLOBIN [1] was 12.37 G/DL, the “LEUKOCYTE COUNT” value [1] was 14.43 x10E3/uL and the LYMPHOCYTE [1] was 87%. The “MEAN CORPUSCULAR HEMOGLOBIN” value [1] was 23.3 pg, the “MEAN CORPUSCULAR HEMOGLOBIN CONCENTRATION” value [1] was 37.93 G/DL and the “MEAN CORPUSCULAR VOLUME” value [1] was 61.4 fL. The MONOCYTE [1] was 1.33%, the NEUTROPHIL [1] was 11.67% and the “NUCLEATED RED BLOOD CELLS” value [1] was 0 /100WBC. For the same molecule, the “PLATELET COUNT” value [1] was 1235.33 x10E3/uL, the “ALANINE AMINOTRANSFERASE” value [1] was 37 u/L and the ALBUMIN [1] was 4.13 G/DL. The “ALKALINE PHOSPHATASE” value [1] was 384.67 u/L, the “ASPARTATE AMINOTRANSFERASE” value [1] was 74.67 u/L and the “BLOOD UREA NITROGEN” value [1] was 16.33 mg/dL. The “CARBON DIOXIDE” value [1] was 24.33 mmol/L, the CHLORIDE [1] was 100.67 MEQ/L and the CHOLESTEROL [1] was 73 mg/dL. For the same molecule, the “CREATINE PHOSPHOKINASE” value [1] was 254.33 u/L, the CREATININE [1] was 0.25 mg/dL and the GLUCOSE [1] was 157.67 mg/dL. The “LACTATE DEHYDROGENASE” value [1] was 151 u/L, the LIPASE [1] was 10.33 u/L and the PHOSPHORUS [1] was 12.53 mg/dL. For the same molecule, the POTASSIUM [1] was 5.81 MEQ/L, the SODIUM [1] was 141.13 MEQ/L and the “TOTAL BILIRUBIN” value [1] was 0.17 mg/dL. The “TOTAL PROTEIN” value [1] was 6.2 G/DL, the “URIC ACID” value [1] was 1.1 mg/dL and the “ABSOLUTE BASOPHIL” value [2] was 0 CELLS/uL. The “ABSOLUTE EOSINOPHIL” value [2] was 42.67 CELLS/uL, the “ABSOLUTE LYMPHOCYTE” value [2] was 10939.33 CELLS/uL and the “ABSOLUTE MONOCYTE” value [2] was 627 CELLS/uL. For the same molecule, the “ABSOLUTE SEGMENTED NEUTROPHIL” value [2] was 1691 CELLS/uL, the BASOPHIL [2] was 0% and the EOSINOPHIL [2] was 0.33%. For the same molecule, the “ERYTHROCYTE COUNT” value [2] was 5.34 x10E6/uL, the HEMATOCRIT [2] was 32.93% and the HEMOGLOBIN [2] was 12.57 G/DL. For the same molecule, the “LEUKOCYTE COUNT” value [2] was 13.3 x10E3/uL, the LYMPHOCYTE [2] was 82.33% and the “MEAN CORPUSCULAR HEMOGLOBIN” value [2] was 23.53 pg. The “MEAN CORPUSCULAR HEMOGLOBIN CONCENTRATION” value [2] was 38.17 G/DL, the “MEAN CORPUSCULAR VOLUME” value [2] was 61.67 fL and the MONOCYTE [2] was 4.67%. For the same molecule, the NEUTROPHIL [2] was 12.67%, the “NUCLEATED RED BLOOD CELLS” value [2] was 0 /100WBC and the “PLATELET COUNT” value [2] was 932 x10E3/uL. The “ALANINE AMINOTRANSFERASE” value [2] was 43.33 u/L, the ALBUMIN [2] was 3.93 G/DL and the “ALKALINE PHOSPHATASE” value [2] was 273 u/L. For the same molecule, the “ASPARTATE AMINOTRANSFERASE” value [2] was 76 u/L, the “BLOOD UREA NITROGEN” value [2] was 16.67 mg/dL and the “CARBON DIOXIDE” value [2] was 33 mmol/L. For the same molecule, the CHLORIDE [2] was 95.33 MEQ/L, the CHOLESTEROL [2] was 74 mg/dL and the “CREATINE PHOSPHOKINASE” value [2] was 309 u/L. The CREATININE [2] was 0.2 mg/dL, the GLUCOSE [2] was 150 mg/dL and the “LACTATE DEHYDROGENASE” value [2] was 226 u/L. The LIPASE [2] was 10.33 u/L, the PHOSPHORUS [2] was 12.03 mg/dL and the POTASSIUM [2] was 6.04 MEQ/L. The SODIUM [2] was 140.6 MEQ/L, the “TOTAL BILIRUBIN” value [2] was 0.1 mg/dL and the “TOTAL PROTEIN” value [2] was 5.93 G/DL. For the same molecule, the “URIC ACID” value [2] was 1.33 mg/dL, the “ABSOLUTE BASOPHIL” value [3] was 0 CELLS/uL and the “ABSOLUTE EOSINOPHIL” value [3] was 37.33 CELLS/uL. For the same molecule, the “ABSOLUTE LYMPHOCYTE” value [3] was 11597.33 CELLS/uL, the “ABSOLUTE MONOCYTE” value [3] was 87.33 CELLS/uL and the “ABSOLUTE SEGMENTED NEUTROPHIL” value [3] was 844.67 CELLS/uL. For the same molecule, the BASOPHIL [3] was 0%, the EOSINOPHIL [3] was 0.33% and the “ERYTHROCYTE COUNT” value [3] was 4.98 x10E6/uL. The HEMATOCRIT [3] was 31.27%, the HEMOGLOBIN [3] was 11.73 G/DL and the “LEUKOCYTE COUNT” value [3] was 12.57 x10E3/uL. The LYMPHOCYTE [3] was 92%, the “MEAN CORPUSCULAR HEMOGLOBIN” value [3] was 23.63 pg and the “MEAN CORPUSCULAR HEMOGLOBIN CONCENTRATION” value [3] was 37.53 G/DL. For the same molecule, the “MEAN CORPUSCULAR VOLUME” value [3] was 62.9 fL, the MONOCYTE [3] was 0.67% and the NEUTROPHIL [3] was 7%. For the same molecule, the “NUCLEATED RED BLOOD CELLS” value [3] was 0 /100WBC, the “PLATELET COUNT” value [3] was 1125.67 x10E3/uL and the “ALANINE AMINOTRANSFERASE” value [3] was 29 u/L. The ALBUMIN [3] was 4.23 G/DL, the “ALKALINE PHOSPHATASE” value [3] was 344 u/L and the “ASPARTATE AMINOTRANSFERASE” value [3] was 95.33 u/L. The “BLOOD UREA NITROGEN” value [3] was 18 mg/dL, the “CARBON DIOXIDE” value [3] was 25.67 mmol/L and the CHLORIDE [3] was 101 MEQ/L. The CHOLESTEROL [3] was 66 mg/dL, the “CREATINE PHOSPHOKINASE” value [3] was 781.33 u/L and the CREATININE [3] was 0.22 mg/dL. The GLUCOSE [3] was 147.33 mg/dL, the “LACTATE DEHYDROGENASE” value [3] was 248.33 u/L and the LIPASE [3] was 10.33 u/L. The PHOSPHORUS [3] was 12.2 mg/dL, the POTASSIUM [3] was 5.97 MEQ/L and the SODIUM [3] was 141.5 MEQ/L. For the same molecule, the “TOTAL BILIRUBIN” value [3] was 0.2 mg/dL, the “TOTAL PROTEIN” value [3] was 6.1 G/DL and the “URIC ACID” value [3] was 1.43 mg/dL. The “ABSOLUTE BASOPHIL” value [4] was 0 CELLS/uL, the “ABSOLUTE EOSINOPHIL” value [4] was 49.33 CELLS/uL and the “ABSOLUTE LYMPHOCYTE” value [4] was 12972.67 CELLS/uL. For the same molecule, the “ABSOLUTE MONOCYTE” value [4] was 95.67 CELLS/uL, the “ABSOLUTE SEGMENTED NEUTROPHIL” value [4] was 649 CELLS/uL and the BASOPHIL [4] was 0%. For the same molecule, the EOSINOPHIL [4] was 0.33%, the “ERYTHROCYTE COUNT” value [4] was 5 x10E6/uL and the HEMATOCRIT [4] was 29.63%. For the same molecule, the HEMOGLOBIN [4] was 11.47 G/DL, the “LEUKOCYTE COUNT” value [4] was 13.77 x10E3/uL and the LYMPHOCYTE [4] was 94.33%. For the same molecule, the “MEAN CORPUSCULAR HEMOGLOBIN” value [4] was 22.93 pg, the “MEAN CORPUSCULAR HEMOGLOBIN CONCENTRATION” value [4] was 38.7 G/DL and the “MEAN CORPUSCULAR VOLUME” value [4] was 59.27 fL. For the same molecule, the MONOCYTE [4] was 0.67%, the NEUTROPHIL [4] was 4.67% and the “NUCLEATED RED BLOOD CELLS” value [4] was 0 /100WBC. The “PLATELET COUNT” value [4] was 1279 x10E3/uL, the “ALANINE AMINOTRANSFERASE” value [4] was 26.67 u/L and the ALBUMIN [4] was 4.07 G/DL. For the same molecule, the “ALKALINE PHOSPHATASE” value [4] was 306.67 u/L, the “ASPARTATE AMINOTRANSFERASE” value [4] was 81.33 u/L and the “BLOOD UREA NITROGEN” value [4] was 15.33 mg/dL. The “CARBON DIOXIDE” value [4] was 30.33 mmol/L, the CHLORIDE [4] was 98.67 MEQ/L and the CHOLESTEROL [4] was 73.67 mg/dL. For the same molecule, the “CREATINE PHOSPHOKINASE” value [4] was 266 u/L, the CREATININE [4] was 0.22 mg/dL and the GLUCOSE [4] was 135.67 mg/dL. For the same molecule, the “LACTATE DEHYDROGENASE” value [4] was 347 u/L, the LIPASE [4] was 10 u/L and the PHOSPHORUS [4] was 11.07 mg/dL. For the same molecule, the POTASSIUM [4] was 6.41 MEQ/L, the SODIUM [4] was 142.17 MEQ/L and the “TOTAL BILIRUBIN” value [4] was 0.1 mg/dL. The “TOTAL PROTEIN” value [4] was 6 G/DL and the “URIC ACID” value [4] was 1.37 mg/dL.
